The values that follow come from ChEMBL document CHEMBL5303573, “Mapping human microbiome drug metabolism by gut bacteria and their genes” (Nature, 2019).

The conditions of data set [1]: segatella copri, 12 h, 2 µM.
Description: The drug is tested on Prevotella copri strain: DSM18205 for biotransformation. The drug concentrations were measured before and after a 12-h incubation by liquid-chromatography-coupled mass spectrometry (LC–MS)
For data set [2] the following is noted: bacteroides intestinalis, 12 h, 2 µM.
Description: The drug is tested on Bacteroides intestinalis strain: DSM17393 for biotransformation. The drug concentrations were measured before and after a 12-h incubation by liquid-chromatography-coupled mass spectrometry (LC–MS)
Data set [3] is described as follows: The drug is tested on Odoribacter splanchnicus strain: fecal isolate for biotransformation. The drug concentrations were measured before and after a 12-h incubation by liquid-chromatography-coupled mass spectrometry (LC–MS). The note with it: 2 µM.
Data set [4] is described as follows: The drug is tested on Blautia luti strain: DSM14534 for biotransformation. The drug concentrations were measured before and after a 12-h incubation by liquid-chromatography-coupled mass spectrometry (LC–MS). Type of data set: ADME. Details: dose 2 uM, timepoint 0 vs 12 hours. The conditions noted are these: 2 µM.
The nature of data set [5]: The drug is tested on Bacteroides fragilis strain: HMW615 for biotransformation. The drug concentrations were measured before and after a 12-h incubation by liquid-chromatography-coupled mass spectrometry (LC–MS). The note with it: 2 µM.
The conditions of data set [6]: bacteroides thetaiotaomicron, 12 h, 2 µM.
Description: The drug is tested on Bacteroides thetaiotaomicron strain: 3731 for biotransformation. The drug concentrations were measured before and after a 12-h incubation by liquid-chromatography-coupled mass spectrometry (LC–MS)
The conditions of data set [7]: limosilactobacillus reuteri cf48-3a, 12 h, 2 µM.
Description: The drug is tested on Lactobacillus reuteri CF48-3A strain: BEI HM-102 for biotransformation. The drug concentrations were measured before and after a 12-h incubation by liquid-chromatography-coupled mass spectrometry (LC–MS)
The conditions of data set [8]: anaerostipes sp., 12 h, 2 µM.
Description: The drug is tested on Anaerostipes sp. strain: fecal isolate for biotransformation. The drug concentrations were measured before and after a 12-h incubation by liquid-chromatography-coupled mass spectrometry (LC–MS)
The conditions of data set [9]: akkermansia muciniphila, 12 h, 2 µM.
Description: The drug is tested on Akkermansia muciniphila strain: ATCC BAA-835 for biotransformation. The drug concentrations were measured before and after a 12-h incubation by liquid-chromatography-coupled mass spectrometry (LC–MS)
For data set [10] the following is noted: parabacteroides distasonis, 12 h, 2 µM.
Description: The drug is tested on Parabacteroides distasonis strain: ATCC8503 for biotransformation. The drug concentrations were measured before and after a 12-h incubation by liquid-chromatography-coupled mass spectrometry (LC–MS)
A short description of data set [11]: The drug is tested on Bifidobacterium longum subsp. Infantis strain: CCUG52486 for biotransformation. The drug concentrations were measured before and after a 12-h incubation by liquid-chromatography-coupled mass spectrometry (LC–MS). The note with it: 2 µM.
Data set [12] is described as follows: The drug is tested on Bacteroides caccae strain: ATCC43185 for biotransformation. The drug concentrations were measured before and after a 12-h incubation by liquid-chromatography-coupled mass spectrometry (LC–MS). The conditions noted are these: 2 µM.
For data set [13] the following is noted: parabacteroides johnsonii, 12 h, 2 µM.
Description: The drug is tested on Parabacteroides johnsonii strain: DSM18315 for biotransformation. The drug concentrations were measured before and after a 12-h incubation by liquid-chromatography-coupled mass spectrometry (LC–MS)
Data set [14] is described as follows: The drug is tested on Bacteroides sp. WH2 strain: WH2 for biotransformation. The drug concentrations were measured before and after a 12-h incubation by liquid-chromatography-coupled mass spectrometry (LC–MS). The note with it: bacteroides sp. wh2, 12 h, 2 µM.
Data set [15] can be described thus: The drug is tested on Eubacterium ventriosum strain: ATCC27560 for biotransformation. The drug concentrations were measured before and after a 12-h incubation by liquid-chromatography-coupled mass spectrometry (LC–MS). Details: dose 2 uM, timepoint 0 vs 12 hours. The note with it: 2 µM. Type of data set: ADME.
Data set [16] can be described thus: The drug is tested on Providencia stuartii strain: ATCC25827 for biotransformation. The drug concentrations were measured before and after a 12-h incubation by liquid-chromatography-coupled mass spectrometry (LC–MS). The conditions noted are these: 2 µM.
A short description of data set [17]: The drug is tested on Ruminococcus lactaris strain: ATCC29176 for biotransformation. The drug concentrations were measured before and after a 12-h incubation by liquid-chromatography-coupled mass spectrometry (LC–MS). The conditions noted are these: 2 µM.
Data set [18] in a line: The drug is tested on Parabacteroides merdae strain: ATCC43184 for biotransformation. The drug concentrations were measured before and after a 12-h incubation by liquid-chromatography-coupled mass spectrometry (LC–MS). The conditions noted are these: 2 µM.
A short description of data set [19]: The drug is tested on Anaerococcus hydrogenalis strain: DSM7454 for biotransformation. The drug concentrations were measured before and after a 12-h incubation by liquid-chromatography-coupled mass spectrometry (LC–MS). The conditions noted are these: 2 µM.
The nature of data set [20]: The drug is tested on Bacteroides finegoldii strain: DSM17565 for biotransformation. The drug concentrations were measured before and after a 12-h incubation by liquid-chromatography-coupled mass spectrometry (LC–MS). The note with it: 2 µM.

SMILES strings stand for the structures.

In the case of `CN1CCN(CC/C=C2/c3ccccc3Sc3ccc(S(=O)(=O)N(C)C)cc32)CC1` [THIOTHIXENE], the “Bacterial Biotransformation” value in data set [1] is recorded as “Compound metabolized”; in [2], “Compound NOT metabolized”; in data set [3], “Compound metabolized”; in [4], “Compound NOT metabolized”; in data set [5], “Compound NOT metabolized”; in data set [6], “Compound NOT metabolized”. Besides, the “Bacterial Biotransformation” value in [7] was “Compound metabolized”; in data set [8], “Compound metabolized”; in data set [9], “Compound NOT metabolized”; in data set [10], “Compound metabolized”; in data set [11] it was “Compound NOT metabolized”; in data set [12], “Compound NOT metabolized”. For the same molecule, the “Bacterial Biotransformation” value in [13] is “Compound metabolized”; in data set [14] it was “Compound NOT metabolized”; in data set [15], “Compound metabolized”; in data set [16] it was “Compound metabolized”; in data set [17], “Compound metabolized”; in [18], “Compound NOT metabolized”. For the same molecule, the “Bacterial Biotransformation” value in [19] was “Compound metabolized”.

With `COc1ccc2c(c1OC)C(=O)O[C@@H]2[C@H]1c2c(cc3c(c2OC)OCO3)CCN1C` [NOSCAPINE], the “Bacterial Biotransformation” value in data set [1] is given as “Compound metabolized”; in data set [2] it was “Compound metabolized”; in [3], “Compound metabolized”; in data set [4], “Compound metabolized”; in data set [5] it was “Compound NOT metabolized”; in data set [20], “Compound metabolized”. The “Bacterial Biotransformation” value is “Compound metabolized” in [7]; “Compound metabolized” in [8]; “Compound metabolized” in data set [9]; “Compound metabolized” in data set [10]; “Compound metabolized” in [11]; “Compound NOT metabolized” in [12]. For the same molecule, the “Bacterial Biotransformation” value in data set [13] is given as “Compound metabolized”; in [14] it was “Compound NOT metabolized”; in data set [15], “Compound metabolized”; in data set [16], “Compound metabolized”; in data set [17] it was “Compound metabolized”; in data set [18], “Compound metabolized”. In data set [19], the “Bacterial Biotransformation” value is on record as “Compound metabolized”.

In the case of `COC(=O)[C@H](c1ccccc1Cl)N1CCc2sccc2C1.O=S(=O)(O)O` [CLOPIDOGREL BISULFATE], the “Bacterial Biotransformation” value was “Compound NOT metabolized” in [1]; “Compound NOT metabolized” in data set [2]; “Compound metabolized” in data set [3]; “Compound NOT metabolized” in data set [4]; “Compound metabolized” in data set [5]; “Compound NOT metabolized” in [6]. Besides, the “Bacterial Biotransformation” value in [7] is listed as “Compound NOT metabolized”; in data set [8] it was “Compound NOT metabolized”; in [9], “Compound NOT metabolized”; in data set [10], “Compound metabolized”; in [11], “Compound NOT metabolized”; in data set [12] it was “Compound NOT metabolized”. Besides, the “Bacterial Biotransformation” value was “Compound metabolized” in [13]; “Compound NOT metabolized” in data set [14]; “Compound NOT metabolized” in [15]; “Compound NOT metabolized” in data set [16]; “Compound NOT metabolized” in data set [17]; “Compound metabolized” in data set [18]. For the same molecule, the “Bacterial Biotransformation” value in data set [19] is “Compound NOT metabolized”.

Turning to `CNC(=C[N+](=O)[O-])NCCSCc1ccc(CN(C)C)o1` [RANITIDINE], the “Bacterial Biotransformation” value is on record as “Compound metabolized” in data set [1]; “Compound NOT metabolized” in data set [2]; “Compound metabolized” in [3]; “Compound metabolized” in [4]; “Compound NOT metabolized” in data set [5]; “Compound NOT metabolized” in data set [6]. Besides, the “Bacterial Biotransformation” value in data set [7] is recorded as “Compound NOT metabolized”; in data set [8], “Compound NOT metabolized”; in data set [9], “Compound metabolized”; in data set [10], “Compound NOT metabolized”; in data set [11], “Compound metabolized”; in [13] it was “Compound metabolized”. In addition, the “Bacterial Biotransformation” value in data set [15] is listed as “Compound metabolized”; in data set [16] it was “Compound NOT metabolized”; in [17] it was “Compound metabolized”; in data set [18] it was “Compound NOT metabolized”; in data set [19] it was “Compound metabolized”.

As for `COc1ccc2[nH]c([S+]([O-])Cc3ncc(C)c(OC)c3C)nc2n1` (stereo unspecified) [TENATOPRAZOLE], the “Bacterial Biotransformation” value in data set [1], in [2], in [3], in [4], in data set [5] and in [6] was “Compound metabolized” throughout. Further, the “Bacterial Biotransformation” value in data set [20], in data set [7], in data set [9], in [10], in data set [11] and in data set [12] was “Compound metabolized” throughout. For the same molecule, the “Bacterial Biotransformation” value in [13], in [14], in data set [15], in [16], in data set [18] and in [19] was “Compound metabolized” each time.

As for `CN(C)CCOC(c1ccc(Cl)cc1)c1ccccn1.O=C(O)/C=C\C(=O)O` (stereo unspecified) [CARBINOXAMINE MALEATE], the “Bacterial Biotransformation” value in [1], in data set [2], in [3], in data set [4], in data set [5] and in data set [6] was “Compound NOT metabolized” in each case. Also, the “Bacterial Biotransformation” value in data set [20], in data set [8], in data set [9], in [10], in [11] and in data set [12] was “Compound NOT metabolized” throughout. For the same molecule, the “Bacterial Biotransformation” value in data set [13], in data set [14], in data set [15], in [16], in data set [17] and in [18] was “Compound NOT metabolized” each time. The “Bacterial Biotransformation” value in data set [19] is “Compound NOT metabolized”.
